Source: patent US20010033827A1, “Inhibition of mucin release from airway goblet cells by polycationic peptides” (priority 1999, published 2001)

Legend:
[1] = tested on: hamster tracheal surface epithelial (HTSE) cells; experiment: Mucin release from cultured airway goblet cells (3H-glucosamine-labelled HTSE cell culture); assay type: cell-based, Golden Syrian hamsters; details: for effect on mucin release/secretion (dose dependence): varying concentrations; for effect on mucin release/secretion (dose dependence) / "inhibition" of released mucins: 30 min chase, HTSE cells; for inhibitory effect on mucin release after LMWH pretreatment: 10^-5 M peptide, pretreatment with 2×10^-5 M LMWH for 5 min; for "inhibition" of released mucins / effect on mucin release, column-purified versus not column purified: 10^-5 M; for effect on mucin release, column-purified versus not column purified: unacetylated peptide
Protocol: The effects of poly-L-arginine (PLA) and poly-L-lysine (PLL) on mucin release from cultured airway goblet cells were evaluated. Tracheas obtained from 7-8 week old male Golden Syrian hamsters (Harlan Sprague Dawley, Indianapolis, Ind.) were used to establish a hamster tracheal surface epithelial, (HTSE) cell culture. HTSE cells were harvested and cultured on a thick collagen gel as described in Kim et al., 1989, Exp. Lung Res. 15: 299-314. Mucins were metabolically radiolabeled by incubating confluent cultures (24 well plate, 5×10^5 cells/well) with 0.2 ml/well of a “complete” medium containing 10 μCi/ml of ^3H-glucosamine for 24 hours as described in Kim et al., 1989, Am. J. Resp. Cell Mol. Biol. 1: 137-143. The “complete” medium was prepared by supplementing a mixture of Medium 199/Dulbecco's modified Eagle's medium (DME) (1:1) with insulin (5 μg/ml), transferrin (5 μg/ml), epidermal growth factor (12.5 ng/ml), 0.1 μM hydrocortisone, 0.01 μM sodium selenite, 0.1 μM retinoic acid, and 5% fetal bovine serum (Hyclone, Logan, Utah). At the end of the 24 hour incubation period, the spent media (the pretreatment sample) were collected, and the labeled cultures were washed twice with Dulbecco's PBS without Ca^++ and Mg^++ and then chased for 30 min in the presence of varying concentrations of poly-L-arginine (PLA, average MW 8,900) or poly-L-lysine (PLL, average MW 9,600). The chased media are referred to as the treatment samples. PLA and PLL were prepared in phosphate buffered saline (PBS), and the final pH's of these solutions were adjusted to be between 7.0 and 7.4. […] J. Resp. Cell Mol. Biol. 1: 137-143. At the end of the chase period, floating cells and cell debris were removed from the treatment samples by centrifigation at 12,000×g for 5 min. Fifty μl of the treatment samples were used for lactate dehydrogenase (LDH) assay (as discussed in Example 2 below) and the remaining samples were stored at −80° C. until assayed for their ^3H-mucin contents. High molecular weight glycoconjugates that were excluded after Sepharose CL-4B (Phainacia, Upsaala, Sweden) gel-filtration column chromatography and that were resistant to hyaluronidase, were defined as mucins, as described in Kim et al., 1985, J. Biol. Chem. 260:4021:4027. Mucins were measured by column chromatography as described in Kim et al, 1987, Proc. Natl. Acad. Sci. USA 84:9304-9308.

HTSE cells [2] = experiment: LDH release cytotoxicity assay in HTSE cells; assay type: cell-based, Golden Syrian hamsters; details: for cytotoxicity as determined by LDH release / LDH release: HTSE cells; for cytotoxicity as determined by LDH release: techniques of examples 1-4; for LDH release: 10^-5 M, 30 min treatment; for LDH release across concentration groups: varying concentrations, 30 min, HTSE cells (FIG. 2)
Protocol: (§1) The effects of PLA or PLL on cell toxicity were also examined. The possible cytotoxicity of these polypeptides was assessed by four different methods: (a) LDH release, (b) ^51Cr release, (c) cell exfoliation, and (d) light microscopy. Cultures were treated with either PLA or PLL for 30 min, and then assayed as follows. An LDH assay was conducted using an LDH assay kit (LD-L10) (Sigma Chemical Co., St. Louis, Mo.), according to the manufacturer's directions. A 51Cr release assay was carried out as described in Kim et al., 1987, Proc. Natl. Acad. Sci. USA 84:9304-9308. The degree of exfoliation was measured by counting the floating cells at the end of the 24 hr post-treatment period. Floating cells were collected as a pellet from spent media by centrifugation at 200×g for 5 min at 4° C. The resulting cell pellet was suspended in a solution containing 0.05% Trypsin and 0.02% EDTA, and the suspension was incubated at 37° C. for 10 min before dissociated cells were counted using a hemacytometer.

[3] = tested on: SO2-induced goblet cell metaplasia; experiment: SO2-induced goblet cell metaplasia in rats (inhaled peptide, PAS staining); assay type: in vivo, Sprague-Dawley rats; details: rat, inhaled 100 μl of 50, 500 or 5,000 μM once a day for five days, 150 ppm SO2
Protocol: To examine the effects of PLL or PLA in vivo, the effect of PLL or PLA on goblet cell metaplasia in rats was determined. Exposure of rats to SO2 was carried out essentially according to the method described in Kase et al, 1982, Arzneim-Forsch Drug Research 32:368-373. Eight to ten week-old male Sprague-Dawley rats were placed in a polyacrylic chamber (100 cm×60 cm×25 cm) and exposed to SO2 for three weeks, three hours per day, five days per week. The SO2 gas was generated from a solution containing 10% (W/V) sodium metabisulfite by aerosolization using an ultrasonic humidifier (Samsung Electronic Co., Korea). Concentrations of the generated SO2 gas were monitored before and after the exposure using a SO2 detector kit (Gastec Co., Japan), which has a detection range from 20 to 3600 ppm of SO2. The concentration of the SO2 gas inside the chamber was maintained at 150 ppm during all of the exposure periods.
PLA (average MW 10,800) was prepared in phosphate buffered saline (PBS), pH 7.2, in various concentrations. Following treatment of the animals with SO2 for 2 weeks, animals were treated with both S and PLA during a third week. A 100 μl aliquot of one of the PLA solutions was administered to each rat using an inhaler (PAPI master, Stamberg, Germany), once a day for five consecutive days, during the period immediately following the two week SO2 treatment period. […]

HTSE cells [4] = experiment: 51Cr release assay in HTSE cells; assay type: cell-based, Golden Syrian hamsters; details: 10^-5 M, 30 min; control 100±4%
Protocol: as §1

HTSE cells [5] = experiment: Cell exfoliation (floating cell count) in HTSE cultures; assay type: cell-based, Golden Syrian hamsters; details: 10^-5 M; 24 hr post-treatment period; control 1992±132
Protocol: as §1

HTSE cells [6] = experiment: Light microscopy of treated HTSE cells; assay type: cell-based, Golden Syrian hamsters; details: end of 30 min treatment or end of 24 hr post-treatment period
Protocol: as §1

HTSE cells [7] = experiment: ATP-induced mucin release in HTSE cells; assay type: cell-based, Golden Syrian hamsters; details: 10^-5 M peptide with 2×10^-4 M ATP, 30 min chase
Protocol: The effects of poly-L-arginine (PLA) and poly-L-lysine (PLL) on mucin release from cultured airway goblet cells were evaluated. Tracheas obtained from 7-8 week old male Golden Syrian hamsters (Harlan Sprague Dawley, Indianapolis, Ind.) were used to establish a hamster tracheal surface epithelial, (HTSE) cell culture. HTSE cells were harvested and cultured on a thick collagen gel as described in Kim et al., 1989, Exp. Lung Res. 15: 299-314. Mucins were metabolically radiolabeled by incubating confluent cultures (24 well plate, 5×10^5 cells/well) with 0.2 ml/well of a “complete” medium containing 10 μCi/ml of ^3H-glucosamine for 24 hours as described in Kim et al., 1989, Am. J. Resp. Cell Mol. Biol. 1: 137-143. The “complete” medium was prepared by supplementing a mixture of Medium 199/Dulbecco's modified Eagle's medium (DME) (1:1) with insulin (5 μg/ml), transferrin (5 μg/ml), epidermal growth factor (12.5 ng/ml), 0.1 μM hydrocortisone, 0.01 μM sodium selenite, 0.1 μM retinoic acid, and 5% fetal bovine serum (Hyclone, Logan, Utah). […] Mucins were measured by column chromatography as described in Kim et al, 1987, Proc. Natl. Acad. Sci. USA 84:9304-9308. […]

poly-L-arginine [High molecular weight PLA]
effect on mucin release/secretion (dose dependence) [1]: inhibited mucin secretion in a dose-dependent fashion | cytotoxicity as determined by LDH release (HTSE cells [2]): associated with cytotoxicity

poly-L-arginine [Low molecular weight PLA (14 residues)]
effect on mucin release/secretion (dose dependence) [1]: inhibited mucin secretion in a dose dependent fashion | cytotoxicity as determined by LDH release (HTSE cells [2]): without any evidence of cytotoxicity

poly-L-arginine [Low molecular weight PLA (20 residues)]
effect on mucin release/secretion (dose dependence) [1]: inhibited mucin secretion in a dose dependent fashion | cytotoxicity as determined by LDH release (HTSE cells [2]): without any evidence of cytotoxicity

poly-L-arginine [PLA (5 residues)]
effect on mucin release/secretion (dose dependence) [1]: did not show any significant inhibition

poly-L-arginine [PLA (average MW 10,800)]
goblet cell metaplasia induced by SO2 [3]: prevented by PLA in a dose-dependent fashion

poly-L-arginine [PLA]
inhibitory effect on mucin release after LMWH pretreatment [1]: completely blocked | "inhibition" of released mucins [1]: 85% | effect on mucin release, column-purified versus not column purified [1]: no significant difference | effect on mucin release/secretion (dose dependence) [1]: dose-dependent decrease | LDH release (HTSE cells [2]): no significant increases | LDH release across concentration groups (HTSE cells [2]): no significant difference | 51Cr release (HTSE cells [4]): 102±11% | number of floating cells/well (HTSE cells [5]): 2154±84 cells/well | microscopic difference between control and treated cells (HTSE cells [6]): no apparent microscopic difference | stimulatory effect of ATP on mucin release (HTSE cells [7]): completely blocked

poly-L-lysine [High molecular weight PLL]
effect on mucin release/secretion (dose dependence) [1]: inhibited mucin secretion in a dose-dependent fashion | cytotoxicity as determined by LDH release (HTSE cells [2]): associated with cytotoxicity

poly-L-lysine [Low molecular weight PLL (5 residues)]
effect on mucin release/secretion (dose dependence) [1]: did not show any significant inhibition

poly-L-lysine [Low molecular weight PLL (14 residues)]
effect on mucin release/secretion (dose dependence) [1]: inhibited mucin secretion in a dose dependent fashion | cytotoxicity as determined by LDH release (HTSE cells [2]): without any evidence of cytotoxicity

poly-L-lysine [Low molecular weight PLL (20 residues)]
effect on mucin release/secretion (dose dependence) [1]: inhibited mucin secretion in a dose dependent fashion | cytotoxicity as determined by LDH release (HTSE cells [2]): without any evidence of cytotoxicity

poly-L-lysine [PLL]
inhibitory effect on mucin release after LMWH pretreatment [1]: completely blocked | "inhibition" of released mucins [1]: 87% | effect on mucin release, column-purified versus not column purified [1]: no significant difference | effect on mucin release/secretion (dose dependence) [1]: dose-dependent decrease | LDH release (HTSE cells [2]): no significant increases | LDH release across concentration groups (HTSE cells [2]): no significant difference | 51Cr release (HTSE cells [4]): 103±10% | number of floating cells/well (HTSE cells [5]): 1920±70 cells/well | microscopic difference between control and treated cells (HTSE cells [6]): no apparent microscopic difference | stimulatory effect of ATP on mucin release (HTSE cells [7]): completely blocked
